Test results taken from DBAASP.
Values after ≈ are worked out from the molar mass of the structure shown.

Columns and labels:
Test in all cases: ≥ marks a high value that may be exact or a test limit, other limits are often not marked, values filed in µg/mL are converted to µM
[1] = test system: Enterococcus faecalis ATCC 29212
Staphylococcus aureus = test system: Staphylococcus aureus
[2] = test system: Staphylococcus aureus ATCC 43300
[3] = test system: Staphylococcus aureus ATCC 29213
[4] = test system: Salmonella enterica subsp. enterica serovar Typhimurium ATCC 14028
Escherichia coli UB1005 = test system: Escherichia coli UB1005
[5] = test system: Staphylococcus epidermidis ATCC 12228
[6] = test system: Salmonella enterica subsp. enterica serovar Pullorum C79-13
[7] = test system: Escherichia coli ATCC 25922
[8] = test system: Salmonella enterica subsp. enterica serovar Choleraesuis CVCC 503
[9] = test system: Salmonella enterica subsp. enterica serovar Typhimurium C77-31
Streptococcus agalactiae = test system: Streptococcus agalactiae
[10] = test system: Staphylococcus aureus ATCC 25923
[11] = test system: Candida parapsilosis CGMCC 2.3989
[12] = test system: Salmonella enterica subsp. enterica serovar Pullorum ATCC 7913
Escherichia coli K88 = test system: Escherichia coli K88
Escherichia coli K99 = test system: Escherichia coli K99
Escherichia coli 078 = test system: Escherichia coli 078
[13] = test system: Pseudomonas aeruginosa ATCC 27853
[14] = test system: Candida tropicalis CGMCC 2.1975
[15] = test system: Acinetobacter baumannii KCTC 2508
[16] = test system: Klebsiella pneumoniae KCTC 2208
[17] = test system: Klebsiella pneumoniae ATCC 43816
[18] = test system: Candida albicans NCYC 1467
[19] = test system: Staphylococcus aureus NCTC 12493
[20] = test system: Staphylococcus aureus NCTC 10788
[21] = test system: Enterococcus faecalis NCTC 12697
[22] = test system: Escherichia coli NCTC 10418
[23] = test system: Listeria monocytogenes KCTC 3710
[24] = test system: Staphylococcus aureus CCARM 3090
[25] = test system: Bacillus subtilis KCTC 1998
[26] = test system: Pseudomonas aeruginosa 4007
[27] = test system: Trichosporon beigelii KCTC 7707
[28] = test system: Pseudomonas aeruginosa 4891
[29] = test system: Candida albicans KCTC 7270
[30] = test system: Salmonella typhimurium KCTC 1926
[31] = test system: Escherichia coli CCARM 1229
[32] = test system: Staphylococcus aureus CCARM 3518
[33] = test system: Escherichia coli CCARM 1238

`CC[C@H](C)[C@H](N)C(=O)N[C@@H](CS)C(=O)N[C@@H](CCCN=C(N)N)C(=O)N[C@@H](CCCCN)C(=O)N1CCC[C@H]1C(=O)N[C@H](C(=O)N[C@H](C(=O)N[C@@H](CS)C(=O)N[C@@H](CCCN=C(N)N)C(=O)N[C@@H](CCCCN)C(=O)N1CCC[C@H]1C(=O)N[C@H](C(N)=O)[C@@H](C)CC)[C@@H](C)CC)[C@@H](C)CC` [ICRKPIICRKPI] gave an MIC [1] of over 64 µM, an MIC (Staphylococcus aureus) of over 64 µM and an MIC [2] of over 64 µM. The MIC [3] was over 64 µM, the MIC [4] was over 64 µM and the MIC (Escherichia coli UB1005) was at least 64 µM. The MIC [5] was over 64 µM, the MIC [6] was at least 64 µM and the MIC [7] was 64 µM (≈ 92.1 µg/mL). The MIC [8] was at least 64 µM, the MIC [9] was at least 64 µM and the MIC (Streptococcus agalactiae) was at least 64 µM.

For `CC[C@H](C)[C@H](NC(=O)[C@H](CCCN=C(N)N)NC(=O)[C@H](C)NC(=O)[C@H](C)N)C(=O)N[C@H](C(=O)N[C@@H](CC(C)C)C(=O)N[C@@H](CCCN=C(N)N)C(=O)N[C@@H](Cc1c[nH]c2ccccc12)C(=O)N[C@@H](CCCN=C(N)N)C(=O)N[C@@H](Cc1ccccc1)C(=O)N[C@@H](CCCN=C(N)N)C(N)=O)[C@@H](C)CC` [AARIILRWRFR], the MIC [2] was 1 µM (≈ 1.46 µg/mL), the MIC [10] was 2 µM (≈ 2.91 µg/mL) and the MIC [4] was 2 µM (≈ 2.91 µg/mL). The MIC [11] was 4 µM (≈ 5.83 µg/mL), the MIC [12] was 2 µM (≈ 2.91 µg/mL) and the MIC (Escherichia coli UB1005) was 4 µM (≈ 5.83 µg/mL). For the same compound, the MIC (Escherichia coli K88) was 2 µM (≈ 2.91 µg/mL), the MIC [5] was 1 µM (≈ 1.46 µg/mL) and the MIC (Escherichia coli K99) was 2 µM (≈ 2.91 µg/mL). It also gave an MIC (Escherichia coli 078) of 2 µM (≈ 2.91 µg/mL), an MIC [9] of 4 µM (≈ 5.83 µg/mL) and an MIC [13] of 4 µM (≈ 5.83 µg/mL). It also gave an MIC [14] of 4 µM (≈ 5.83 µg/mL).

`CC[C@H](C)[C@H](N)C(=O)N[C@@H](C)C(=O)N[C@@H](CCCN=C(N)N)C(=O)N[C@@H](CCCN=C(N)N)C(=O)N[C@@H](C)C(=O)N[C@@H](CC(C)C)C(=O)N[C@@H](CCCCN)C(=O)N[C@@H](CCCCN)C(=O)N[C@@H](C)C(=O)N[C@@H](CCCCN)C(=O)N[C@@H](CCCN=C(N)N)C(=O)N[C@@H](C)C(=O)N[C@@H](C)C(=O)N[C@@H](Cc1cnc[nH]1)C(=O)N[C@@H](CCCCN)C(=O)N[C@H](C(=O)N1CCC[C@H]1C(=O)N[C@@H](CCC(N)=O)C(=O)N[C@@H](CS)C(=O)N[C@@H](CCCCN)C(=O)N[C@@H](CCCCN)C(=O)N[C@@H](Cc1ccccc1)C(=O)NCC(=O)N[C@@H](CCCN=C(N)N)C(=O)N[C@@H](CCCN=C(N)N)C(N)=O)[C@@H](C)CC` [IARRALKKAKRAAHKIPQCKKFGRR] gave an MIC [15] of at least 32 µM, an MIC [13] of 2 µM (≈ 5.86 µg/mL) and an MIC [16] of 8 µM (≈ 23.5 µg/mL).

`CC[C@H](C)[C@H](N)C(=O)N[C@@H](C)C(=O)N[C@@H](CCCN=C(N)N)C(=O)N[C@@H](CCCN=C(N)N)C(=O)N[C@@H](C)C(=O)N[C@@H](CC(C)C)C(=O)N[C@@H](CCCCN)C(=O)N[C@@H](CCCCN)C(=O)N[C@@H](C)C(=O)N[C@@H](CCCCN)C(=O)N[C@@H](CCCN=C(N)N)C(=O)N[C@@H](C)C(=O)N[C@@H](C)C(=O)N[C@@H](Cc1cnc[nH]1)C(=O)N[C@@H](CCCCN)C(=O)N[C@H](C(=O)N1CCC[C@H]1C(=O)N[C@@H](C)C(=O)N[C@@H](C)C(=O)N[C@@H](CCCCN)C(=O)N[C@@H](CCCCN)C(=O)N[C@@H](Cc1ccccc1)C(=O)N[C@@H](C)C(=O)N[C@@H](CCCN=C(N)N)C(=O)N[C@@H](CCCN=C(N)N)C(N)=O)[C@@H](C)CC` [IARRALKKAKRAAHKIPAAKKFARR] was tested, and the MIC [15] was 4 µM (≈ 11.4 µg/mL), the MIC [13] was 8 µM (≈ 22.9 µg/mL) and the MIC [16] was 2 µM (≈ 5.71 µg/mL).

Compound `CC(C)C[C@H](NC(=O)[C@H](C)N)C(=O)N[C@@H](Cc1c[nH]c2ccccc12)C(=O)N[C@@H](CCCCN)C(=O)N[C@@H](CO)C(=O)N[C@@H](CC(C)C)C(=O)N[C@@H](CC(C)C)C(=O)N[C@@H](CCCCN)C(=O)N[C@@H](CC(N)=O)C(=O)N[C@H](C(=O)NCC(=O)N[C@@H](CCCCN)C(=O)N[C@@H](C)C(N)=O)C(C)C` [ALWKSLLKNVGKA] has an MIC [17] of at least 128 µM, an MIC [18] of at least 32 µM and an MIC [19] of at least 128 µM. The MIC [20] was at least 64 µM, the MIC [21] was at least 256 µM and the MIC [22] was at least 64 µM. It also gave an MIC [13] of 128 µM (≈ 183 µg/mL).

`CC[C@H](C)[C@H](NC(=O)CNC(=O)[C@H](CCC(N)=O)NC(=O)[C@H](CO)NC(=O)[C@@H](NC(=O)[C@H](CCCCN)NC(=O)[C@H](CCCCN)NC(=O)[C@H](CC(C)C)NC(=O)[C@H](C)NC(=O)[C@H](CC(N)=O)NC(=O)[C@H](CC(C)C)NC(=O)[C@H](C)N)C(C)C)C(=O)N[C@@H](Cc1cnc[nH]1)C(=O)N[C@@H](CCC(=O)O)C(=O)N[C@@H](C)C(=O)N[C@H](C(=O)N[C@@H](CCCCN)C(=O)N[C@@H](CC(C)C)C(=O)N[C@H](C(=O)N[C@@H](C)C(=O)N[C@@H](CC(N)=O)C(=O)N[C@@H](Cc1cnc[nH]1)C(=O)N[C@H](C(=O)N[C@@H](CCC(N)=O)C(N)=O)C(C)C)[C@@H](C)CC)[C@@H](C)CC` [ALNALKKVSQGIHEAIKLIANHVQ] gave an MIC [23] of 16 µM (≈ 41.5 µg/mL), an MIC [24] of at least 32 µM and an MIC [10] of 16 µM (≈ 41.5 µg/mL). It also gave an MIC [25] of 16 µM (≈ 41.5 µg/mL), an MIC [26] of at least 32 µM and an MIC [27] of at least 32 µM. It also gave an MIC [28] of at least 32 µM, an MIC [29] of at least 32 µM and an MIC [30] of 8 µM (≈ 20.8 µg/mL). For the same compound, the MIC [31] was 16 µM (≈ 41.5 µg/mL), the MIC [32] was at least 32 µM and the MIC [33] was 16 µM (≈ 41.5 µg/mL). The MIC [7] was 8 µM (≈ 20.8 µg/mL) and the MIC [13] was 8 µM (≈ 20.8 µg/mL).

With `CC[C@H](C)[C@H](NC(=O)[C@H](CC(C)C)NC(=O)[C@H](CCCCN)NC(=O)[C@@H](NC(=O)[C@H](C)NC(=O)[C@H](CCC(=O)O)NC(=O)[C@H](Cc1cnc[nH]1)NC(=O)[C@@H](NC(=O)CNC(=O)[C@H](CCC(N)=O)NC(=O)[C@H](Cc1ccccc1)NC(=O)[C@@H](NC(=O)[C@H](CCCCN)NC(=O)[C@H](CCCCN)NC(=O)[C@H](CC(C)C)NC(=O)[C@H](C)NC(=O)[C@H](CC(N)=O)NC(=O)[C@@H](N)CC(C)C)C(C)C)[C@@H](C)CC)[C@@H](C)CC)C(N)=O` [LNALKKVFQGIHEAIKLI] the MIC [23] was 8 µM (≈ 16.3 µg/mL), the MIC [24] was 8 µM (≈ 16.3 µg/mL) and the MIC [10] was 8 µM (≈ 16.3 µg/mL). For the same compound, the MIC [25] was 8 µM (≈ 16.3 µg/mL), the MIC [26] was 4 µM (≈ 8.14 µg/mL) and the MIC [27] was 16 µM (≈ 32.6 µg/mL). It also gave an MIC [28] of 8 µM (≈ 16.3 µg/mL), an MIC [29] of 16 µM (≈ 32.6 µg/mL) and an MIC [30] of 4 µM (≈ 8.14 µg/mL). It also gave an MIC [31] of 4 µM (≈ 8.14 µg/mL), an MIC [32] of 8 µM (≈ 16.3 µg/mL) and an MIC [33] of 4 µM (≈ 8.14 µg/mL). The MIC [7] was 4 µM (≈ 8.14 µg/mL) and the MIC [13] was 4 µM (≈ 8.14 µg/mL).
